The values that follow are results of earlier work, collected in patent US9622981B2, “Liquid-filled hard gel capsule pharmaceutical formulations” (Mylan Inc., priority 2011, dated 2017).

Each structure is given as a SMILES string.

The conditions of data set [1]: ordinary conditions.
Assay in data set [2]: not given
The source holds these as a separate data set.

As to `C[C@]12C=CC(=O)N[C@@H]1CC[C@@H]1[C@@H]2CC[C@]2(C)[C@@H](C(=O)Nc3cc(C(F)(F)F)ccc3C(F)(F)F)CC[C@@H]12` [Dutasteride, (5α,17β)-N-[2,5 bis(trifluoromethyl)phenyl]-3-oxo-4-azaandrost-1-ene-17-carboxamide], the “partition coefficient, Log P” value is given as 5.609±0.618. Moreover, the stability entry in data set [1] is recorded as “stable under ordinary conditions”. Also, in data set [2], the solubility in water entry was “insoluble”.
